This note sets out measurements from article PMC10010340, “The Wnt Pathway Inhibitor RXC004 Blocks Tumor Growth and Reverses Immune Evasion in Wnt Ligand–dependent Cancer Models” (Cancer Research Communications, 2022).

The test system of series [1] is functional Wnt production from mouse L-Wnt3a cells. The series can be described thus: Wnt reporter assay (L-Wnt3a conditioned media on LEADING LIGHT Wnt Reporter Cell Line). The class given is cell-based. The procedure: Reporter Assay: Media from L-Wnt3a cells (L cells overexpressing Wnt3a; ATCC CRL-2647) treated with a concentration-series of RXC004, was incubated with the LEADING LIGHT Wnt Reporter Cell Line (Enzo life sciences; ENZ-61002-0001). Luciferase was detected using the ONE-Glo Luciferase Assay System (Promega E6120), data were normalized to DMSO-treated controls and IC50 values determined. Recombinant Wnt3a (Bio-Techne #1324-WN-010) was used at 1 μg/mL. β-catenin expression: L-Wnt3a cells were treated with RXC004 (100 nmol/L) or DMSO (0.1%) for 24 hours. Cellular β-catenin protein levels were quantified by staining with anti-β-catenin (AlexaFluor488, BD 562505) and assessment using an Agilent Novocyte-3000 flow cytometer.
On the technique in general: In a reporter assay the amount or activity of a reporter protein is the signal.

The nature of series [2]: Permeability in Caco-2 cells. Format: in vitro ADME. The following applies: human. How it is done: Permeability of RXC004 was assessed in MDR1-MDCKII (Netherlands Cancer Institute) and Caco-2 cells (Merck Life Sciences). RXC004 (10 μmol/L) was added to either apical or basolateral chamber for 2 hours at 37°C, then an aliquot from the opposite side of the monolayer was removed and quantified by LC/MS-MS. Apparent permeability (Papp) was calculated according to standard practice ([20]).
A general note: Passage across Caco-2 layers is used to estimate intestinal permeability.

A short description of the next series: Hepatocyte stability. Format: in vitro ADME, rat (Sprague Dawley). The conditions noted are these: Rat, 1 μmol/L. How it is done: (§1) Metabolic stability: liver microsomes and hepatocytes from human, mouse (CD1), rat (Sprague Dawley) and dog (Beagle) were obtained from Invitrogen. RXC004 (1 μmol/L) was incubated at 37°C with microsomes (0.5 mg · mL^−1) or hepatocytes (0.5 × 10^6 cells · mL^−1). Aliquots were removed at 0–45 minutes and RXC004 concentrations determined by LC/MS-MS analysis. Half-life (T1/2) and intrinsic clearance (CLint) were calculated as described in ref. [18].

A short description of another series: Microsomal stability. The class given is in vitro ADME, dog (Beagle). The following applies: Dog, 1 μmol/L. How it is done:
as §1

A further series is described as follows: In vivo pharmacokinetics. The following applies: beagle, dog. The procedure:
In vivo pharmacokinetics: RXC004 was dosed to male Sprague Dawley rats, male CD1 mice or dog (beagle) by intravenous and oral routes. Bioanalysis of blood and plasma samples was performed by LC/MS-MS using a Waters TQS or TQMS mass spectrometer. Pharmacokinetic information was derived using WinNonlin software (Certara).

The next series has as its system HPAF-II cells. The experiment in a line: Cell-cycle analysis, phospho-Ser10 histone H3 flow cytometry. The class given is cell-based, human. The following applies: 100 nmol/L, representative plot (DMSO 2.03%). The procedure: For concentration–response effects on gene expression, Single-Shot Cell Lysis kit (Bio-Rad #172-5080) was used for RNA extraction, data were normalized to DMSO-treated controls, and IC50 values determined. For cell-cycle analysis, the cancer cell line panel was treated with RXC004 (100 nmol/L) or DMSO (0.1%) for 3 days. Cell-cycle profiles were determined by staining with propidium iodide (Thermo Fisher Scientific #P3566) and phospho-Ser10-Histone-H3 (AlexaFluor-647, BioLegend #650806), and quantified using an Agilent Novocyte-3000 flow cytometer. For in vitro growth curve analysis, HPAF-II and SNU-1411 cells were seeded in 96-well plates at 2,000 cells/well and imaged on the IncuCyte (Sartorius) at 10× magnification with 4 fields of view per well. Total cell object count over time was calculated using the Adherent Cell-by-Cell analysis module.
In general terms: A flow cytometer gives signals particle by particle.

The subject of series [3] is SNU-1411 xenograft. The series can be described thus: SNU-1411 xenograft dose-response study. The following applies: day 19; 1.5 and 5 mg/kg once daily, 1.5 mg/kg twice daily continuous or 5-day on/2-day off. The class given is in vivo, mouse (NOD-SCID). The procedure: To explore dose–response effects in vivo, SNU-1411 (1 × 10^7 cells) were implanted into NOD-SCID mice subcutaneously at Axis Bioservices. Animals were randomized into the indicated groups and oral dosing of RXC004 was initiated when tumors reached approximately 200 mm^3. Tumor volume measurements were taken at day 19, n ≥9 per group. Pharmacokinetic/pharmacodynamic analysis in SNU1411/NOD-SCID mice was performed in a separate study at Axis Biosciences, with tissue and plasma extracted for assessments after 7 days of RXC004 dosing. Tumor was divided into two sections; one section snap frozen and the other processed by FFPE. RXC004 levels were determined in snap frozen tumor and blood samples by LC/MS-MS. Expression analysis of the indicated genes was performed on snap frozen tumor as described above. Serial FFPE tumor sections were stained with H&E, anti-Ki67 (Abcam #Ab15580) or the dual mucin stain Alcian-blue/periodic acid shift (AB-PAS) at Histologix. IHC images were quantified using HALO software and modules (Indica Labs). The AB-PAS images were analyzed with the area quantification module on tumor area. […] The Ki67 images were analyzed with the multiplex IHC module and number of Ki67-positive cells were determined per mm^2 of total or differentiated tumor area.

Series [4] has as its system SNU-1411 xenograft. The series can be described thus: SNU-1411 tumor reimplantation study. Format: in vivo, mouse (NOD-SCID). The conditions noted are these: prior treatment 5 mg/kg once daily, 9 days; versus vehicle pretreated. How it is done: The reimplantation study was performed at Sygnature Discovery. SNU-1411–implanted NOD-SCID mice were dosed orally with RXC004 (5 mg/kg, once daily) once tumors reached an average size of 350 mm^3. After 9 days treatment, tumors were resected and equivalent viable tumor fragments from each tumor were reimplanted into separate naïve NOD-SCID mice, tumor volume was assessed at various subsequent timepoints.

Another series deals with B16F10 tumors. The series can be described thus: B16F10/SCID-Beige model. Format: in vivo, mouse (SCID-Beige). The following applies: 5 mg/kg once daily for 21 days, immunocompromised mice. How it is done:
B16F10/SCID-Beige model was performed at Axis Bioservices. Mouse B16F10 cells (2 × 10^5) were subcutaneously implanted in flanks of the immunocompromised male SCID-Beige mice. Treatment with RXC004 (5 mg/kg once daily) was initiated at day 3, once the tumors were palpable, and tumor volume assessed over time.

The IC50 is the concentration needed to halve the response being measured. In general, AUC(0-inf) refers to total exposure, with the tail of the curve extrapolated. What is called Cmax is the peak of the concentration-time curve. `Cc1c(-c2ccnc(C(F)(F)F)c2)ncn1CC(=O)Nc1ccc(-c2cnccn2)cn1` [RXC004, 2-[5-methyl-4-[2-(trifluoromethyl)-4-pyridyl]imidazol-1-yl]-N-(5-pyrazin-2-yl-2-pyridyl)acetamide]: the IC50 in [1] (Mus musculus, L Wnt-3A, L-Wnt3a cells treated with concentration-series, read-out: IC50, β-catenin responsive luciferase reporter activated by conditioned media) came out at 0.064 nM. Besides, the “effect on downstream Wnt signaling (rescue by recombinant Wnt3a)” value in series [1] (recombinant Wnt3a 1 μg/mL) is recorded as “no effect on downstream Wnt signaling”. Moreover, in series [2] (apical to basolateral, read-out: Caco-2 PappA-B), the Papp A→B at 2 h, 10 μmol/L was found to be 23.6 ×10⁻⁶ cm/s. In addition, the Papp B→A at 2 h, 10 μmol/L in [2] (basolateral to apical, read-out: Caco-2 PappB-A) is 21.8 ×10⁻⁶ cm/s. The “Hepatocyte stability: CLint” value in the series “Hepatocyte stability” was 5.3 μL minute^−^1 · 10^6 cells^−^1. Moreover, the “Microsomal stability: CLint” value in “Microsomal stability” worked out at 31.6 μL minute^−^1 · mg^−^1. For the same compound, in the series “In vivo pharmacokinetics” (dose i.v./p.o. 2/5 mg/kg, read-out: T½ (converted)), the half-life is 48 min. In addition, the clearance in “In vivo pharmacokinetics” (intravenous, 2 mg/kg, dose i.v./p.o. 2/5 mg/kg) is 8.9 mL/min/kg. Further, the Vd in “In vivo pharmacokinetics” (intravenous, 2 mg/kg, dose i.v./p.o. 2/5 mg/kg, read-out: Vss) was found to be 0.39 L/kg. Further, in the series “In vivo pharmacokinetics” (po, 5 mg/kg p.o.), the AUC(0-inf) stood at 8.6 µM·h and the Cmax turned out to be 10.4 µM. The concentration at 24 h in “In vivo pharmacokinetics” (po, 5 mg/kg p.o., read-out: C24h (p.o.)) came out at 12 nM. The “pH3+ (percentage phospho-Ser10 histone H3 positive cells)” value with HPAF-II cells is given as 0.28%. Besides, the tumor volume entry with SNU-1411 xenograft [3] is “Significant reduction in tumor volume”. Moreover, the “tumor growth after reimplantation into naïve untreated mice” value in the series with SNU-1411 xenograft [4] was “prolonged impact on tumor growth”. The tumor growth result with B16F10 tumors is on record as “did not reduce tumor growth”.
